# Laboratory results taken from ChEMBL document CHEMBL4813957, “Antitubercular properties of thiazolidin-4-ones - A review” (Eur J Med Chem, 2021).
# What was measured:
# Type in all cases: functional
# [1] = test system: Mycobacterium tuberculosis; experiment: Antimycobacterial activity against Mycobacterium tuberculosis H37Rv incubated for 5 days by microplate alamar blue assay; settings: 120 h, time 5 day
# [2] = test system: Mycobacterium tuberculosis; experiment: Antimycobacterial activity against Mycobacterium tuberculosis H37Ra ATCC 25177 incubated for 7 days by microplate alamar blue assay; settings: H37Ra ATCC 25177, 168 h, time 7 day
# [3] = test system: Mycobacterium tuberculosis; experiment: Antimycobacterial activity against Mycobacterium tuberculosis H37Rv ATCC […] by microplate alamar blue assay; settings: 168 h, time 7 day
# [4] = test system: Mycobacterium tuberculosis; experiment: Antimycobacterial activity against Mycobacterium tuberculosis H37Rv ATCC27294 measured after 28 days by two-fold serial dilution method; settings: H37Rv ATCC 27294, 672 h, time 28 day
# [5] = test system: Mycobacterium tuberculosis; experiment: Antimycobacterial activity against Mycobacterium tuberculosis H37Rv by microplate alamar blue assay
# [6] = test system: Mycobacterium tuberculosis; experiment: Antimycobacterial activity against Mycobacterium tuberculosis H37Rv by filter paper disc diffusion method
compound,measurement,setting,value
O=C(NN1C(=O)CSC1c1c(-c2ccccc2)[nH]c2ccccc12)c1[nH]c2ccc(Cl)cc2c1-c1ccccc1 (stereo not given),MIC,[1],12.5 µg/mL
COc1cc(/C=N/NC(=S)Nc2ccccc2)ccc1OC(=O)CC1SC(=O)NC1=O (stereo not given),MIC,[2],2 µg/mL
NC(=O)c1cnccn1 [PYRAZINAMIDE],MIC,[3],3.12 µg/mL
same,MIC,[1],3.12 µg/mL
CN(C)c1ccc(/C=C2\SC(=S)N(c3ccc(C=O)cc3)C2=O)cc1,MIC,[1],12.5 µg/mL
N=C1S/C(=C\c2cc([N+](=O)[O-])cs2)C(=O)N1c1ncc([N+](=O)[O-])s1,MIC,[4],7.21 µM
COc1cc(/C=N/NC(=S)Nc2cccc(Cl)c2)ccc1OC(=O)CC1SC(=O)NC1=O (stereo not given),MIC,[2],2 µg/mL
O=C1/C(=C/c2ccc(F)cc2)SC(=S)N1Cc1nc2ccccc2[nH]1,MIC,[5],6.25 µg/mL
Cc1ccc(C2SC(C)C(=O)N2c2nc(N3CCN(C)CC3)n[nH]2)cc1 (stereo not given),MIC,[5],≤ 1 µg/mL
O=C1CSC(c2ccc(O)cc2)N1C1=NN2C(=CSC2c2ccc(O)cc2)S1 (stereo not given),MIC,[3],1.6 µg/mL
O=C1CSC(c2ccccc2Cl)N1C(=O)NCCCn1ncc2ccc([N+](=O)[O-])cc21 (stereo not given),MIC,[6],4.25 µg/mL
COc1ccccc1C1SCC(=O)N1C1=NN2C(=CSC2c2ccc(N(C)C)cc2)S1 (stereo not given),MIC,[3],3.12 µg/mL
N=C1S/C(=C\c2ccccc2F)C(=O)N1c1ncc([N+](=O)[O-])s1,MIC,[4],3.9 µM
O=C1CSC(c2c(-c3ccccc3)[nH]c3ccccc23)N1c1nc(-c2ccccc2)cs1 (stereo not given),MIC,[1],50 µg/mL
COc1ccc(/C=C2\SC(=N)N(c3cccc(C(F)(F)F)c3)C2=O)cc1,MIC,[4],4.12 µM
Cc1ccc(C2SC=C3SC(N4C(=O)CSC4c4ccccc4)=NN32)cc1 (stereo not given),MIC,[3],625 µg/mL
COc1ccc(N2C(=O)CSC2c2cc(=O)oc3ccc(C)cc23)cc1 (stereo not given),MIC,[5],25 µg/mL
O=C1/C(=C/c2ccccc2)SC(=S)N1Cc1nc2ccccc2[nH]1,MIC,[5],6.25 µg/mL
O=C1CSC(c2ccccc2Br)N1C(=O)NCCCn1ncc2ccc([N+](=O)[O-])cc21 (stereo not given),MIC,[6],4.75 µg/mL
O=C1CSC(c2ccc3c(c2)OCO3)N1c1nc(N2CCOCC2)n[nH]1 (stereo not given),MIC,[5],≤ 1 µg/mL
COc1ccc(/C=C2\SC(=S)NC2=O)cc1,MIC,[1],0.1 µg/mL
N=C1S/C(=C\c2ccc(OCc3ccccc3)cc2)C(=O)N1c1cccc(C(F)(F)F)c1,MIC,[4],6.88 µM
O=C(NCCCn1ncc2ccc([N+](=O)[O-])cc21)N1C(=O)/C(=C/c2ccccc2)SC1c1ccccc1 (stereo not given),MIC,[6],6.25 µg/mL
CN(C)c1ccc(C2SC=C3SC(N4C(=O)CSC4c4ccccc4)=NN32)cc1 (stereo not given),MIC,[3],6.25 µg/mL
O=C1CSC(c2ccc(-n3cncn3)cc2)N1Nc1ccccc1 (stereo not given),MIC,[1],14.3 µM
O=C(NCCCn1ncc2ccc([N+](=O)[O-])cc21)N1C(=O)/C(=C/c2ccc([N+](=O)[O-])cc2)SC1c1ccc([N+](=O)[O-])cc1 (stereo not given),MIC,[6],1.5 µg/mL
O=C1N/C(=N\c2ccc(S(=O)(=O)Nc3cc(Cl)c(Cl)cc3Cl)cc2)S/C1=C\c1ccc(O)cc1,MIC,[5],3.12 µg/mL
N=C1S/C(=C\c2cc([N+](=O)[O-])cs2)C(=O)N1c1nc2ccc([N+](=O)[O-])cc2s1,MIC,[4],6.52 µM
O=C1CSC(c2ccc(-n3ccnc3)cc2)N1Nc1ccccc1 (stereo not given),MIC,[1],14.3 µM
Cc1ccc(C2SC=C3SC(N4C(=O)CSC4c4ccccc4C)=NN32)cc1 (stereo not given),MIC,[3],3.12 µg/mL
Nc1ccc([N+](=O)[O-])cc1N1C(=O)/C(=C/c2ccccc2)SC1=S,MIC,[1],12.5 µg/mL
O=C1CSC(c2ccccc2Cl)N1C1=NN2C(=CSC2c2ccccc2)S1 (stereo not given),MIC,[3],3.12 µg/mL
COc1cc(/C=C2\SC(=N)N(c3ncc([N+](=O)[O-])s3)C2=O)cc(OC)c1OC,MIC,[4],3.31 µM
COc1cc(/C=C2\SC(=N)N(c3cccc(C(F)(F)F)c3)C2=O)cc(OC)c1OC,MIC,[4],7.11 µM
COc1ccc(C2SCC(=O)N2C2=NN3C(=CSC3c3ccc(N(C)C)cc3)S2)cc1 (stereo not given),MIC,[3],3.12 µg/mL
COc1ccc(/C=C2\SC(=S)N(c3cc([N+](=O)[O-])ccc3N)C2=O)cc1,MIC,[1],12.5 µg/mL
Cc1ccc(/C=C2\SC(=S)N(Cc3nc4ccccc4[nH]3)C2=O)cc1,MIC,[5],6.25 µg/mL
COc1cc(/C=C2\SC(=N)N(c3nc4ccc([N+](=O)[O-])cc4s3)C2=O)cc(OC)c1OC,MIC,[4],7.4 µM
N=C1S/C(=C\c2ccc(OCc3ccccc3)cc2)C(=O)N1c1ncc([N+](=O)[O-])s1,MIC,[4],6.4 µM
Cc1ccc(NN2C(=O)CSC2c2ccc(-n3ccnc3)cc2)cc1 (stereo not given),MIC,[1],14.3 µM
O=C(NCCCn1ncc2ccc([N+](=O)[O-])cc21)N1C(=O)/C(=C/c2ccc(Cl)cc2)SC1c1ccc(Cl)cc1 (stereo not given),MIC,[6],3.25 µg/mL
O=C(NCCCn1ncc2ccc([N+](=O)[O-])cc21)N1C(=O)/C(=C/c2ccc(Br)cc2)SC1c1ccc(Br)cc1 (stereo not given),MIC,[6],2.5 µg/mL
O=C1CSC(c2cccc([N+](=O)[O-])c2)N1C(=O)NCCCn1ncc2ccc([N+](=O)[O-])cc21 (stereo not given),MIC,[6],4.25 µg/mL
N=C1S/C(=C\c2ccccc2F)C(=O)N1c1nc2ccc([N+](=O)[O-])cc2s1,MIC,[4],4.26 µM
O=C1CSC(c2cccc(Cl)c2)N1C(=O)NCCCn1ncc2ccc([N+](=O)[O-])cc21 (stereo not given),MIC,[6],4.5 µg/mL
